In one data set the test system is Haemonchus Contortus. Nature of the data set: Egg reduction test (eggs per gram of faeces) in experimentally infected sheep. The format is in vivo. The note with it: oral (gelatin capsule), 1 sheep, EPG. On the procedure: Effectiveness of Forms I-IV of the Depsipeptide of the Formula (I) at Different Oral Dosages Against Haemonchus Contortus in Sheep
Sheep (Merino or Blackhead breed, 25-35 kg of body weight) were experimentally infected with 5000H contortus L3 larvae and treated with the formulated test substance at the end of the prepatency time of the parasite. The test compounds were administered orally (gelatin capsule). The anthelmintic effectiveness of the test substances was measured as a function of reduction of the number of eggs per gram of faeces. To this end, fresh faeces from the test animals were processed according to the McMaster method, modified according to Wetzel, and the number of eggs was determined. The number of eggs was determined at regular intervals before and after the treatment. The anthelmintic effectiveness was defined as follows: 3=>95%, 2=75-95%, 1=50-75% and 0=<50% reduction in eggs (cf. also G. von Samson-Himmelstjerna, A. Harder, T. Schnieder, J. Kalbe, N. Mencke (2000) In vivo activities of the new anthelmintic depsipeptide PF1022A. Parasitol. Res. 86:194-199).

Data set [1] in a line: Thermodynamic stability of the crystal forms. It counts as physicochemical. The following applies: comparison of forms I-IV.
Another data set concerns Cooperia Oncophora. In words: Slaughter test (reduction of number of worms in small intestine) in experimentally infected cattle. The format is in vivo. The note with it: oral, 3 cattle, slaughter 10 days after treatment. The procedure: Effectiveness of Forms I and IV of the Depsipeptide of the Formula (I) at Different Oral Dosages Against Cooperia Oncophora in Cattle
Cattle (breed: Hostein Friesean, species: Bos taurus, calves or young cattle of up to about 200 kg) were experimentally infected with 15,000 C. oncophora L3 larvae. After successful infection (prepatency time about 18-21 days) the number of eggs per gram of faeces was determined 3 times within one week. The animals were then (at day 0=day of the treatment) treated orally (gelatin capsule) or subcutaneously with the formulated test substance. The anthelmintic effectiveness of the test substances was determined as a function of the reduction of the number of worms (in % of the untreated control) in the small intestine after the animals had been slaughtered (10 days after the treatment) (cf. also G. von Samson-Himmelstjerna, A. Harder, T. Schnieder, J. Kalbe, N. Mencke (2000) In vivo activities of the new anthelmintic depsipeptide PF1022A. Parasitol. Res. 86: 194-199.).
The effectiveness in the slaughter experiment is stated in % reduction in worms, compared to the untreated control.

Data set [2] is described as follows: Bioavailability of the crystal forms. The format is in vivo. The note with it: comparison of forms I-IV.

Consider `CC(C)C[C@H]1C(=O)O[C@H](Cc2ccc(N3CCOCC3)cc2)C(=O)N(C)[C@@H](CC(C)C)C(=O)O[C@H](C)C(=O)N(C)[C@@H](CC(C)C)C(=O)O[C@H](Cc2ccc(N3CCOCC3)cc2)C(=O)N(C)[C@@H](CC(C)C)C(=O)O[C@H](C)C(=O)N1C` [Form III], for which the “Effectiveness (reduction of eggs per gram of faeces)” value with Haemonchus Contortus (dosage 0.1 mg/kg, listed as III) was 1 (1 Sheep, EPG) (1 = effectiveness 50% to 75%); with Haemonchus Contortus (dosage 0.5 mg/kg, listed as III) it was 1 (1 Sheep, EPG) (1 = effectiveness 50% to 75%).
Regarding `CC(C)C[C@H]1C(=O)O[C@H](Cc2ccc(N3CCOCC3)cc2)C(=O)N(C)[C@@H](CC(C)C)C(=O)O[C@H](C)C(=O)N(C)[C@@H](CC(C)C)C(=O)O[C@H](Cc2ccc(N3CCOCC3)cc2)C(=O)N(C)[C@@H](CC(C)C)C(=O)O[C@H](C)C(=O)N1C` [Form II], the “Effectiveness (reduction of eggs per gram of faeces)” value with Haemonchus Contortus (dosage 0.1 mg/kg, listed as II) is 0 (1 Sheep, EPG) (0 = effectiveness ≦ 50 %); with Haemonchus Contortus (dosage 0.5 mg/kg, listed as II), 0 (1 Sheep, EPG) (0 = effectiveness ≦ 50 %).
For the compound `CC(C)C[C@H]1C(=O)O[C@H](Cc2ccc(N3CCOCC3)cc2)C(=O)N(C)[C@@H](CC(C)C)C(=O)O[C@H](C)C(=O)N(C)[C@@H](CC(C)C)C(=O)O[C@H](Cc2ccc(N3CCOCC3)cc2)C(=O)N(C)[C@@H](CC(C)C)C(=O)O[C@H](C)C(=O)N1C` [Form IV], the “Thermodynamic stability (rank among the four forms)” value in data set [1] (listed as form IV) is reported as “thermodynamically fourth most stable form”. Moreover, the “Effectiveness (% reduction in worms, compared to the untreated control)” value was 43.09% (3 cattle, slaughter test) with Cooperia Oncophora (dosage 1.0 mg/kg, listed as IV) and 99.15% (3 cattle, slaughter test) with Cooperia Oncophora (dosage 2.0 mg/kg). In addition, the “Effectiveness (reduction of eggs per gram of faeces)” value is listed as 0 (1 Sheep, EPG) (0 = effectiveness ≦ 50 %) in the data set on Haemonchus Contortus (dosage 0.1 mg/kg, listed as IV); 0 (1 Sheep, EPG) (0 = effectiveness ≦ 50 %) in the data set on Haemonchus Contortus (dosage 0.5 mg/kg, listed as IV); 3 (1 Sheep, EPG) (3 = effectiveness > 95%) with Haemonchus Contortus (dosage 1.0 mg/kg).
As to `CC(C)C[C@H]1C(=O)O[C@H](Cc2ccc(N3CCOCC3)cc2)C(=O)N(C)[C@@H](CC(C)C)C(=O)O[C@H](C)C(=O)N(C)[C@@H](CC(C)C)C(=O)O[C@H](Cc2ccc(N3CCOCC3)cc2)C(=O)N(C)[C@@H](CC(C)C)C(=O)O[C@H](C)C(=O)N1C` [Form I], in data set [1] (listed as form I), the “Thermodynamic stability (rank among the four forms)” value is listed as “thermodynamically most stable form”. In addition, the “Effectiveness (% reduction in worms, compared to the untreated control)” value with Cooperia Oncophora (dosage 1.0 mg/kg, listed as I) is 93.81% (3 cattle, slaughter test). The “Bioavailability (rank among the forms)” value in data set [2] is on record as “greatest bioavailability”. Besides, the “Effectiveness (reduction of eggs per gram of faeces)” value in the data set on Haemonchus Contortus (dosage 0.1 mg/kg, listed as I) was 3 (1 Sheep, EPG) (3 = effectiveness > 95%); in the data set on Haemonchus Contortus (dosage 0.5 mg/kg, listed as I), 3 (1 Sheep, EPG) (3 = effectiveness > 95%).
